Tests used:
α4β1 integrin = α4β1 integrin (Homo sapiens (Human), UniProt P05556+P13612); assay: Integrin Adhesion Assay: Protocol 5 (VCAM-coated plate, RPMI-8866 cells with stable LOF mutation of the ITGB7 gene); type: cell-based; details: RPMI-8866 cells with stable LOF mutation of the ITGB7 gene; read-out: Mean IC50 α4β1 KO^b
In short: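 RPMI-8866 B cells with CRISPR/Cas9 ITGB7 knockout (clonal, verified by flow cytometry) adhered to VCAM-coated wells for 1 h at 37° C in HEPES/NaCl buffer with 1 mM MnCl2, 0.1 mM CaCl2, 1% BSA, 1% DMSO. Bound cells quantified by CellTiter-Glo luminescence after washing; % inhibition versus DMSO and control, 4-parameter fit.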

α4β7 integrin = α4β7 integrin (Homo sapiens (Human), UniProt P13612+P26010); assay: Integrin Adhesion Assay: Protocol 4 (MAdCAM-coated plate, RPMI-8866 cells with stable LOF mutation of the ITGB1 gene); type: cell-based; details: RPMI-8866 cells with stable LOF mutation of the ITGB1 gene; read-out: Mean IC50 α4β7 KO^a
α4β7 integrin, sequence (P13612 34-1032): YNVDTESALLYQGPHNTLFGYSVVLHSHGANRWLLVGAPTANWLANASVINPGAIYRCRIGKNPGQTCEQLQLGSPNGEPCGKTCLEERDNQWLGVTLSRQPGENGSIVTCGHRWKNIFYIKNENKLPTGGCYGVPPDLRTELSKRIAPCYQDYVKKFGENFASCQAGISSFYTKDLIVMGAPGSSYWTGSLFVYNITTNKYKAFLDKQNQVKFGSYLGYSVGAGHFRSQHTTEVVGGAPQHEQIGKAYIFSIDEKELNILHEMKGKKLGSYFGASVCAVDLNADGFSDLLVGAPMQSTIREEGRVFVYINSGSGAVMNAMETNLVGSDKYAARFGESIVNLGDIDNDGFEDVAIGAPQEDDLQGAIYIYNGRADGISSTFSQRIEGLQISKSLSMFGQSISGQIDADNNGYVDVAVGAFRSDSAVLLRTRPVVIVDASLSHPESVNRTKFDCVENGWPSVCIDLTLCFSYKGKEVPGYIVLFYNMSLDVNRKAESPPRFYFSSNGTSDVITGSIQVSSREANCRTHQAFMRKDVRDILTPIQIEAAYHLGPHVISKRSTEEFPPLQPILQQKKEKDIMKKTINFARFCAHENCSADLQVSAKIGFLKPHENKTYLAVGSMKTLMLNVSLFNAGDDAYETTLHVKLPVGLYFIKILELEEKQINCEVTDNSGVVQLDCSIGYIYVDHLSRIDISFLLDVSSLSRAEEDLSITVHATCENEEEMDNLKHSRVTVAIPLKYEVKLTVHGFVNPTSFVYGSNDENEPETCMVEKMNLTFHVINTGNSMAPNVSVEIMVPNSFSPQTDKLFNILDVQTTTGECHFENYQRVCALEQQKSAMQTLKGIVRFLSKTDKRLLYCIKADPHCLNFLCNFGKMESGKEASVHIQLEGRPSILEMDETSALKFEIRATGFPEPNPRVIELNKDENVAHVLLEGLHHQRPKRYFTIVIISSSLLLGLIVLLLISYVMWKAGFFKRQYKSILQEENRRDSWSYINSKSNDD
α4β7 integrin, sequence (P26010 20-798): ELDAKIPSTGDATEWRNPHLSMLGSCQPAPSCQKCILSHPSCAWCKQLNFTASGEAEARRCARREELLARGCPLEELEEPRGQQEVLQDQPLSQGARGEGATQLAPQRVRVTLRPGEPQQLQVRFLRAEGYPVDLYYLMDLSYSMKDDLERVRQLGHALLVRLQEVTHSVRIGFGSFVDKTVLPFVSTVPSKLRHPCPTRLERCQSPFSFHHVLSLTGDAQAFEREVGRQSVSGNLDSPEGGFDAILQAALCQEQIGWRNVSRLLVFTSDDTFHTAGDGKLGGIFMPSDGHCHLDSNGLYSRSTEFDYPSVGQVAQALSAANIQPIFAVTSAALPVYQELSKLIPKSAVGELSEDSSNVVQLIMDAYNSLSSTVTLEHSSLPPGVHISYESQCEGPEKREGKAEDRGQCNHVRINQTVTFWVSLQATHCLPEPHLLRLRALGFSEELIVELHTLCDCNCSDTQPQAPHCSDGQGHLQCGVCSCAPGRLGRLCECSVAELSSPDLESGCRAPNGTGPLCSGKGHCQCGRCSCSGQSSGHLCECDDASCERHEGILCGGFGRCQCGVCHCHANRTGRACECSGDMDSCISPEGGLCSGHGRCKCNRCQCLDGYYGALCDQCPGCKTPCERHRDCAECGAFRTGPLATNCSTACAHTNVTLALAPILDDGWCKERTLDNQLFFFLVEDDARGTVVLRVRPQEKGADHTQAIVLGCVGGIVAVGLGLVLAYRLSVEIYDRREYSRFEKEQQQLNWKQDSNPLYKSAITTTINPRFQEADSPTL
In short: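 RPMI-8866 cells with CRISPR/Cas9 knockout of ITGB1 (2×10^6/mL) were added to MAdCAM-coated wells with compound (1% DMSO) in HEPES/NaCl buffer with 1 mM MnCl2, 0.1 mM CaCl2 and 1% BSA, then incubated 1 h at 37 °C. After four washes, adherent cells were quantified by CellTiter-Glo luminescence. Percent inhibition versus DMSO and control compound was fitted to 4-parameter curves.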

α4β1 integrin, sequence (P13612 34-1032): as the sequence (P13612 34-1032) above
α4β1 integrin, sequence (P05556 21-798): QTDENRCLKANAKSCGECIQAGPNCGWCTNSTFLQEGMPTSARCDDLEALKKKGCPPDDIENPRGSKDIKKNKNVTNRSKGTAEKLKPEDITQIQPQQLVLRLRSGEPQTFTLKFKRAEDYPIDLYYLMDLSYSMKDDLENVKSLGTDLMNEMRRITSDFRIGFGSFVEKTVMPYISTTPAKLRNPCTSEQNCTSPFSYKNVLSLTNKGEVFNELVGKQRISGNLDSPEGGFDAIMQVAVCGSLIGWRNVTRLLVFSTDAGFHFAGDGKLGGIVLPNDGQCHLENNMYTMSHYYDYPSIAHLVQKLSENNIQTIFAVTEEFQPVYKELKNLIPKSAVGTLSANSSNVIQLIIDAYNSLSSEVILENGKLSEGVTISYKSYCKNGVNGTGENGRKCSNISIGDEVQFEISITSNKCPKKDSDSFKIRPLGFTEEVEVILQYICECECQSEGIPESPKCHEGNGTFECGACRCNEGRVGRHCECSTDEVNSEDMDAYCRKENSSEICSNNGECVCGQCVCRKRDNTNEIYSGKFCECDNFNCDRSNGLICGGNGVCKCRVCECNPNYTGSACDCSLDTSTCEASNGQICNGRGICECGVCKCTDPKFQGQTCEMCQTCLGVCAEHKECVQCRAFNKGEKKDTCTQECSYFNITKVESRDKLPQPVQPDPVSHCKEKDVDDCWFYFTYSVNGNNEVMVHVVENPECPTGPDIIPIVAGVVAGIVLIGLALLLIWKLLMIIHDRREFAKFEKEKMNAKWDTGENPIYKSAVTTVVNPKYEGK

IC50 (α4β1 integrin) [nM]	IC50 (α4β7 integrin) [nM]	SMILES
> 1000	< 10	CN(C)Cc1cccc2c(-c3cccc4c(C[C@H](NC(=O)C5(C(F)(F)F)CCN([C@@H]6CCOC6)CC5)C(=O)O)cccc34)nccc12 [Compound 592]
100 to 1000	< 10	CN(C)Cc1cccc2c(-c3cccc4c(C[C@H](NC(=O)C5(C(F)(F)F)CCN([C@H]6CCOC6)CC5)C(=O)O)cccc34)nccc12 [Compound 593]
> 1000	10 to 100	O=C(O)[C@H](Cc1cccc2c(-c3nccc4c(CN5CCC(F)(F)C5)cccc34)cccc12)NC(=O)C1(C(F)(F)F)CCN(CC(F)(F)F)CC1 [Compound 594]
100 to 1000	< 10	O=C(O)[C@H](Cc1cccc2c(-c3nccc4c(CN5CCC(F)(F)C5)cccc34)cccc12)NC(=O)C1(C(F)(F)F)CCN(C2COC2)CC1 [Compound 595]
100 to 1000	< 10	COc1ccc(CN2CCCC2)c(OC)c1-c1cccc2c(C[C@H](NC(=O)c3c(C)cccc3F)C(=O)O)cccc12 [Compound 596]
> 1000	10 to 100	COc1ccc(CN2CCC(F)(F)C2)c(OC)c1-c1cccc2c(C[C@H](NC(=O)c3c(C)cccc3F)C(=O)O)cccc12 [Compound 597]
> 1000	10 to 100	O=C(O)[C@H](Cc1cccc2c(-c3cc(CN4CCC(F)(F)C4)cc4ccncc34)cccc12)NC(=O)C1(C(F)(F)F)CCN(C2COC2)CC1 [Compound 598]
100 to 1000	< 10	COc1ccc(CN(C)C)nc1-c1cccc2c(C[C@H](NC(=O)c3c(C)cccc3F)C(=O)O)cccc12 [Compound 599]
> 1000	10 to 100	COc1ccc(CN2CCC(F)(F)CC2)nc1-c1cccc2c(C[C@H](NC(=O)c3c(C)cccc3F)C(=O)O)cccc12 [Compound 600]
> 1000	< 10	COc1cnc(CN(C)C)cc1-c1cccc2c(C[C@H](NC(=O)c3c(C)cccc3F)C(=O)O)cccc12 [Compound 601]
> 1000	< 10	COc1ccc(CN(C)C)c(OC)c1-c1cccc2c(C[C@H](NC(=O)c3c(C)cc(C4CC(F)(F)C4)cc3F)C(=O)O)cccc12 [Compound 602]
> 1000	10 to 100	COc1ccc(CN(C)C)c(OC)c1-c1cccc2c(C[C@H](NC(=O)c3c(C)cc(C(F)(F)F)cc3F)C(=O)O)cccc12 [Compound 603]
> 1000	< 10	COc1ccc(CN2CCC(F)(F)CC2)c(OC)c1-c1cccc2c(C[C@H](NC(=O)c3c(C)cncc3F)C(=O)O)cccc12 [Compound 604]
> 1000	10 to 100	COc1ccc(CN2CCC(F)(F)CC2)c(OC)c1-c1cccc2c(C[C@H](NC(=O)c3c(F)cccc3Cl)C(=O)O)cccc12 [Compound 605]
> 1000	10 to 100	COc1ccc(CN2CCC(F)(F)CC2)c(OC)c1-c1cccc2c(C[C@H](NC(=O)c3c(C)ccnc3F)C(=O)O)cccc12 [Compound 606]
100 to 1000	< 10	COc1ccc(CN(C)C)c(OC)c1-c1cccc2c(C[C@H](NC(=O)c3c(C)cc(NCC(F)(F)F)cc3F)C(=O)O)cccc12 [Compound 607]
> 1000	10 to 100	COc1ccc(CN2CCC(F)(F)CC2)c(OC)c1-c1cccc2c(C[C@H](NC(=O)c3c(C)cc(NCC(F)(F)F)cc3F)C(=O)O)cccc12 [Compound 608]
100 to 1000	10 to 100	COc1ccc(CN2CCC(F)(F)CC2)c(OC)c1-c1cccc2c(C[C@H](NC(=O)c3c(C)cc4cnn(CC(F)(F)F)c4c3F)C(=O)O)cccc12 [Compound 609]
100 to 1000	< 10	COc1ccc(CN(C)C)c(OC)c1-c1cccc2c(C[C@H](NC(=O)c3c(F)cccc3Cl)C(=O)O)cccc12 [Compound 610]
> 1000	< 10	COc1ccc(CN2CCC(F)(F)CC2)c(OC)c1-c1cccc2c(C[C@H](NC(=O)C3(C(F)(F)F)CCN(C4COC4)CC3)C(=O)O)cccc12 [Compound 611]
100 to 1000	< 10	COc1ccc(CN(C)C)c(OC)c1-c1cccc2c(C[C@H](NC(=O)c3c(Cl)cccc3Cl)C(=O)O)cccc12 [Compound 612]
100 to 1000	< 10	COc1ccc(CN(C)C)c(OC)c1-c1cccc2c(C[C@H](NC(=O)c3c(C)cccc3Cl)C(=O)O)cccc12 [Compound 613]
100 to 1000	10 to 100	COc1ccc(CN2CCC(F)(F)CC2)c(OC)c1-c1cccc2c(C[C@H](NC(=O)c3c(F)cncc3Cl)C(=O)O)cccc12 [Compound 614]
> 1000	10 to 100	COc1ccc(CN2CCC(F)(F)CC2)c(OC)c1-c1cccc2c(C[C@H](NC(=O)c3c(F)ccnc3C)C(=O)O)cccc12 [Compound 615]

IC50 (α4β1 integrin) [nM]	IC50 (α4β7 integrin) [nM]	SMILES
> 1000	10 to 100	COc1ccc(CN2CCC(F)(F)CC2)c(OC)c1-c1cccc2c(C[C@H](NC(=O)c3c(C)cc(C45CCOCC4C5)cc3F)C(=O)O)cccc12 (stereo partly drawn) [Compound 616]
> 1000	10 to 100	CN(C)Cc1cc(-c2cccc3c(C[C@H](NC(=O)C4(C(F)(F)F)CCN(CC(F)(F)F)CC4)C(=O)O)cccc23)c2cnccc2c1 [Compound 618]
> 1000	< 10	Cc1cccc(F)c1C(=O)N[C@@H](Cc1cccc2c(-c3nccc4c(CN5CCCC5)cccc34)cccc12)C(=O)O [Compound 619]
> 1000	< 10	O=C(O)[C@H](Cc1cccc2c(-c3cc(CN4CCCC4)cc4ccncc34)cccc12)NC(=O)C1(C(F)(F)F)CCN(C2COC2)CC1 [Compound 620]
100 to 1000	< 10	COc1ccc(CN2CCCCC2)c(OC)c1-c1cccc2c(C[C@H](NC(=O)c3c(C)cccc3F)C(=O)O)cccc12 [Compound 621]
100 to 1000	< 10	CCN(CC)Cc1ccc(OC)c(-c2cccc3c(C[C@H](NC(=O)c4c(C)cccc4F)C(=O)O)cccc23)c1OC [Compound 622]
100 to 1000	< 10	COc1ccc(CN2CCC3(CC2)CC3)c(OC)c1-c1cccc2c(C[C@H](NC(=O)c3c(C)cccc3F)C(=O)O)cccc12 [Compound 623]
100 to 1000	< 10	COc1ccc(CN2CCC(F)CC2)c(OC)c1-c1cccc2c(C[C@H](NC(=O)c3c(C)cccc3F)C(=O)O)cccc12 [Compound 624]
100 to 1000	< 10	COc1ccc(CN2CCC(C)CC2)c(OC)c1-c1cccc2c(C[C@H](NC(=O)c3c(C)cccc3F)C(=O)O)cccc12 [Compound 625]
100 to 1000	< 10	COc1ccc(CN2CCC(C)(C)CC2)c(OC)c1-c1cccc2c(C[C@H](NC(=O)c3c(C)cccc3F)C(=O)O)cccc12 [Compound 626]
> 1000	10 to 100	COc1ccc(CN2CC(F)(F)C2)c(OC)c1-c1cccc2c(C[C@H](NC(=O)c3c(C)cccc3F)C(=O)O)cccc12 [Compound 627]
100 to 1000	< 10	COc1ccc(CN2CCC2)c(OC)c1-c1cccc2c(C[C@H](NC(=O)c3c(C)cccc3F)C(=O)O)cccc12 [Compound 628]
> 1000	< 10	COc1ccc(CN2CCC(F)C2)c(OC)c1-c1cccc2c(C[C@H](NC(=O)c3c(C)cccc3F)C(=O)O)cccc12 (stereo partly drawn) [Compound 629]
100 to 1000	< 10	COc1ccc(CN2CCCCC2(C)C)c(OC)c1-c1cccc2c(C[C@H](NC(=O)c3c(C)cccc3F)C(=O)O)cccc12 [Compound 630]
100 to 1000	< 10	COc1ccc(CN2CCCCC2C)c(OC)c1-c1cccc2c(C[C@H](NC(=O)c3c(C)cccc3F)C(=O)O)cccc12 (stereo partly drawn) [Compound 631]
100 to 1000	< 10	COc1ccc(CN2C(C)CCCC2C)c(OC)c1-c1cccc2c(C[C@H](NC(=O)c3c(C)cccc3F)C(=O)O)cccc12 (stereo partly drawn) [Compound 632]
10 to 100	< 10	COc1ccc(CN2CCCC2C)c(OC)c1-c1cccc2c(C[C@H](NC(=O)c3c(C)cccc3F)C(=O)O)cccc12 (stereo partly drawn) [Compound 633]
> 1000	10 to 100	COc1ccc(CN2CCC(F)(F)CC2)c(OC)c1-c1cccc2c(C[C@H](NC(=O)c3c(C)cccc3F)C(=O)O)cccc12 [Compound 634]
> 1000	10 to 100	COc1ccc(CN2C(C)CCC2C)c(OC)c1-c1cccc2c(C[C@H](NC(=O)c3c(C)cccc3F)C(=O)O)cccc12 (stereo partly drawn) [Compound 635]
100 to 1000	< 10	COc1ccc(CN(C)CCF)c(OC)c1-c1cccc2c(C[C@H](NC(=O)c3c(C)cccc3F)C(=O)O)cccc12 [Compound 636]
100 to 1000	< 10	COc1ccc(CN(C)CC(F)F)c(OC)c1-c1cccc2c(C[C@H](NC(=O)c3c(C)cccc3F)C(=O)O)cccc12 [Compound 637]
100 to 1000	< 10	COc1ccc(CN2CC(OC)C2)c(OC)c1-c1cccc2c(C[C@H](NC(=O)c3c(C)cccc3F)C(=O)O)cccc12 [Compound 638]
100 to 1000	< 10	O=C(O)[C@H](Cc1cccc2c(-c3nccc4c(CN5CCCCC5)cccc34)cccc12)NC(=O)C1(C(F)(F)F)CCN([C@H]2COCC2(F)F)CC1 [Compound 641]
> 1000	< 10	O=C(O)[C@H](Cc1cccc2c(-c3nccc4c(CN5CCCCC5)cccc34)cccc12)NC(=O)C1(C(F)(F)F)CCN([C@@H]2COCC2(F)F)CC1 [Compound 642]

From patent publication US20250313535A1, “ALPHA 4 BETA 7 INTEGRIN MODULATORS AND USES THEREOF” (DICE MOLECULES SV, INC., priority 2022, published 2025)
